DBAASP
In brackets after ≈: the same amount, converted by molar mass.

Tests used:
Assay in all cases: ≥ marks a high value that may be exact or a test limit, other limits are often not marked, values filed in µg/mL are converted to µM
[1] = test system: Candida albicans ATCC 10231
[2] = test system: Cryptococcus neoformans ATCC 32045
[3] = test system: Escherichia coli ATCC 2592
[4] = test system: Pseudomonas aeruginosa ATCC 10145
[5] = test system: Staphylococcus aureus ATCC 33591
Escherichia coli JW0013 = test system: Escherichia coli JW0013
[6] = test system: Pseudomonas aeruginosa Ps4

Row | MIC [1] | MIC [2] | MIC [3] | MIC [4] | MIC [5] | MIC (Escherichia coli JW0013) | MIC [6] | Structure (SMILES)
1 | > 245 µM | ≥ 43.1 µM | ≥ 86.5 µM | ≥ 122 µM | ≥ 86.5 µM |  |  | CC(C)C[C@H](NC(=O)[C@H](C)NC(=O)[C@H](CC(C)C)NC(=O)[C@H](C)NC(=O)[C@H](CC(C)C)NC(=O)[C@H](C)NC(=O)[C@H](CC(C)C)NC(=O)[C@H](C)NC(=O)[C@H](CC(C)C)NC(=O)[C@H](C)NC(=O)[C@H](CC(C)C)NC(=O)[C@H](C)NC(=O)[C@H](CC(C)C)NC(=O)[C@H](C)NC(=O)[C@H](CC(C)C)NC(=O)[C@H](C)NC(=O)[C@H](CC(C)C)NC(=O)[C@H](C)NC(=O)[C@H](CC(C)C)NC(=O)[C@H](C)NC(=O)[C@@H](N)CC(C)C)C(=O)N[C@@H](C)C(=O)O [LALALALALALALALALALALA]
2 | 61.7 µM (≈ 177 µg/mL) | 15.5 µM (≈ 44.5 µg/mL) | 7.9 µM (≈ 22.6 µg/mL) | 21.6 µM (≈ 62 µg/mL) | ≥ 87.2 µM |  |  | C[C@H](NC(=O)[C@H](Cc1ccccc1)NC(=O)[C@H](CCCCN)NC(=O)[C@H](CCCCN)NC(=O)[C@H](C)NC(=O)[C@H](Cc1ccccc1)NC(=O)[C@H](CCCCN)NC(=O)[C@H](CCCCN)NC(=O)[C@H](C)NC(=O)[C@H](Cc1ccccc1)NC(=O)[C@H](CCCCN)NC(=O)[C@H](CCCCN)NC(=O)[C@H](C)NC(=O)[C@H](Cc1ccccc1)NC(=O)[C@H](CCCCN)NC(=O)[C@H](CCCCN)NC(=O)[C@H](C)NC(=O)[C@H](Cc1ccccc1)NC(=O)[C@H](CCCCN)NC(=O)[C@H](CCCCN)NC(=O)[C@H](C)NC(=O)[C@H](Cc1ccccc1)NC(=O)[C@H](CCCCN)NC(=O)[C@@H](N)CCCCN)C(=O)O [KKFAKKFAKKFAKKFAKKFAKKFA]
3 | 145 µM (≈ 354 µg/mL) | 20.4 µM (≈ 49.8 µg/mL) | ≥ 36.1 µM | ≥ 51.2 µM | ≥ 205 µM |  |  | NCCCC[C@H](NC(=O)[C@H](Cc1ccccc1)NC(=O)[C@H](CCCCN)NC(=O)[C@H](CCCCN)NC(=O)[C@H](Cc1ccccc1)NC(=O)[C@H](CCCCN)NC(=O)[C@H](CCCCN)NC(=O)[C@H](Cc1ccccc1)NC(=O)[C@H](CCCCN)NC(=O)[C@H](CCCCN)NC(=O)[C@H](Cc1ccccc1)NC(=O)[C@H](CCCCN)NC(=O)[C@H](CCCCN)NC(=O)[C@H](Cc1ccccc1)NC(=O)[C@H](CCCCN)NC(=O)[C@H](CCCCN)NC(=O)[C@H](Cc1ccccc1)NC(=O)[C@@H](N)CCCCN)C(=O)O [KFKKFKKFKKFKKFKKFK]
4 | 145 µM (≈ 354 µg/mL) | ≥ 36.2 µM | ≥ 79.6 µM | ≥ 51.4 µM | ≥ 72.7 µM |  |  | CC(C)C[C@H](NC(=O)[C@H](CCCCN)NC(=O)[C@H](CC(C)C)NC(=O)[C@H](CCCCN)NC(=O)[C@H](CC(C)C)NC(=O)[C@H](CCCCN)NC(=O)[C@H](CC(C)C)NC(=O)[C@H](CCCCN)NC(=O)[C@H](CC(C)C)NC(=O)[C@H](CCCCN)NC(=O)[C@H](CC(C)C)NC(=O)[C@H](CCCCN)NC(=O)[C@H](CC(C)C)NC(=O)[C@H](CCCCN)NC(=O)[C@H](CC(C)C)NC(=O)[C@H](CCCCN)NC(=O)[C@H](CC(C)C)NC(=O)[C@H](CCCCN)NC(=O)[C@@H](N)CC(C)C)C(=O)N[C@@H](CCCCN)C(=O)O [LKLKLKLKLKLKLKLKLKLK]
5 |  |  |  |  |  |  | ≥ 145 µM | CC[C@H](C)[C@H](NC(=O)[C@H](CC(N)=O)NC(=O)[C@H](CCCN=C(N)N)NC(=O)[C@H](CCC(N)=O)NC(=O)[C@H](Cc1c[nH]c2ccccc12)NC(=O)[C@H](CCCN=C(N)N)NC(=O)[C@@H](N)CCCN=C(N)N)C(=O)N[C@@H](CCCN=C(N)N)C(=O)N[C@@H](CCCCN)C(=O)N[C@H](C(=O)N[C@@H](CCCN=C(N)N)C(=O)N[C@@H](CCCN=C(N)N)C(N)=O)C(C)C [RRWQRNIRKVRR]
6 | > 178 µM | 31.4 µM (≈ 88 µg/mL) | ≥ 178 µM | ≥ 89 µM | ≥ 178 µM |  |  | C[C@H](NC(=O)[C@H](C)NC(=O)[C@H](CCCCN)NC(=O)[C@H](CCCCN)NC(=O)[C@H](C)NC(=O)[C@H](C)NC(=O)[C@H](CCCCN)NC(=O)[C@H](CCCCN)NC(=O)[C@H](C)NC(=O)[C@H](C)NC(=O)[C@H](CCCCN)NC(=O)[C@H](CCCCN)NC(=O)[C@H](C)NC(=O)[C@H](C)NC(=O)[C@H](CCCCN)NC(=O)[C@H](CCCCN)NC(=O)[C@H](C)NC(=O)[C@H](C)NC(=O)[C@H](CCCCN)NC(=O)[C@H](CCCCN)NC(=O)[C@H](C)NC(=O)[C@H](C)NC(=O)[C@H](CCCCN)NC(=O)[C@H](CCCCN)NC(=O)[C@H](C)NC(=O)[C@H](C)NC(=O)[C@@H](N)CCCCN)C(=O)N[C@@H](CCCCN)C(=O)O [KAAKKAAKKAAKKAAKKAAKKAAKKAAK]
7 | 181 µM (≈ 354 µg/mL) | 23 µM (≈ 44.9 µg/mL) | ≥ 64.1 µM | ≥ 66.7 µM | ≥ 90.7 µM |  |  | CC(C)C[C@H](NC(=O)[C@H](CCCCN)NC(=O)[C@H](CC(C)C)NC(=O)[C@H](CCCCN)NC(=O)[C@H](CC(C)C)NC(=O)[C@H](CCCCN)NC(=O)[C@H](CC(C)C)NC(=O)[C@H](CCCCN)NC(=O)[C@H](CC(C)C)NC(=O)[C@H](CCCCN)NC(=O)[C@H](CC(C)C)NC(=O)[C@H](CCCCN)NC(=O)[C@H](CC(C)C)NC(=O)[C@H](CCCCN)NC(=O)[C@@H](N)CC(C)C)C(=O)N[C@@H](CCCCN)C(=O)O [LKLKLKLKLKLKLKLK]
8 | 161 µM (≈ 354 µg/mL) | 20.3 µM (≈ 44.5 µg/mL) | ≥ 40.2 µM | ≥ 36.5 µM | ≥ 161 µM |  |  | CC(C)C[C@H](NC(=O)[C@H](CCCCN)NC(=O)[C@H](CC(C)C)NC(=O)[C@H](CCCCN)NC(=O)[C@H](CC(C)C)NC(=O)[C@H](CCCCN)NC(=O)[C@H](CC(C)C)NC(=O)[C@H](CCCCN)NC(=O)[C@H](CC(C)C)NC(=O)[C@H](CCCCN)NC(=O)[C@H](CC(C)C)NC(=O)[C@H](CCCCN)NC(=O)[C@H](CC(C)C)NC(=O)[C@H](CCCCN)NC(=O)[C@H](CC(C)C)NC(=O)[C@H](CCCCN)NC(=O)[C@@H](N)CC(C)C)C(=O)N[C@@H](CCCCN)C(=O)O [LKLKLKLKLKLKLKLKLK]

The remaining lines, values behind:

Row | Structure (SMILES) | MIC [1] | MIC [2] | MIC [3] | MIC [4] | MIC [5] | MIC (Escherichia coli JW0013) | MIC [6]
9 | CC[C@H](C)[C@H](NC(=O)[C@H](CCCN=C(N)N)NC(=O)[C@H](CCCN=C(N)N)NC(=O)[C@@H]1CCCN1C(=O)[C@@H]1CCCN1C(=O)[C@H](CCCN=C(N)N)NC(=O)[C@@H]1CCCN1C(=O)[C@H](CCCN=C(N)N)NC(=O)[C@@H]1CCCN1C(=O)[C@H](CC(C)C)NC(=O)[C@H](Cc1ccc(O)cc1)NC(=O)CNC(=O)[C@@H]1CCCN1C(=O)[C@H](CCCCN)NC(=O)[C@H](CC(=O)O)NC(=O)[C@@H](N)C(C)C)C(=O)N[C@@H](Cc1ccc(O)cc1)C(=O)N[C@@H](CC(N)=O)C(=O)N[C@@H](CCCN=C(N)N)C(N)=O [VDKPGYLPRPRPPRRIYNR] |  |  |  |  |  | 2.04 µM (≈ 4.8 µg/mL) | 
10 | CC[C@H](C)[C@H](NC(=O)[C@H](CCCN=C(N)N)NC(=O)[C@H](CCCN=C(N)N)NC(=O)[C@@H]1CCCN1C(=O)[C@@H]1CCCN1C(=O)[C@H](CCCN=C(N)N)NC(=O)[C@@H]1CCCN1C(=O)[C@H](CCCN=C(N)N)NC(=O)[C@@H]1CCCN1C(=O)[C@H](CC(C)C)NC(=O)[C@H](Cc1ccc(O)cc1)NC(=O)[C@@H]1CCCN1C(=O)[C@@H]1CCCN1C(=O)[C@H](CCCCN)NC(=O)[C@H](Cc1c[nH]c2ccccc12)NC(=O)[C@@H](N)C(C)C)C(=O)N[C@@H](Cc1ccc(O)cc1)C(=O)N[C@@H](CC(N)=O)C(=O)N[C@@H](CCCN=C(N)N)C(N)=O [VWKPPYLPRPRPPRRIYNR] |  |  |  |  |  | 1.95 µM (≈ 4.8 µg/mL) | 
11 | CC[C@H](C)[C@H](NC(=O)[C@H](CC(N)=O)NC(=O)[C@H](CCCN=C(N)N)NC(=O)[C@H](CCC(N)=O)NC(=O)[C@H](Cc1c[nH]c2ccccc12)NC(=O)[C@@H](N)CCCN=C(N)N)C(=O)N[C@@H](CCCN=C(N)N)C(=O)N[C@@H](CCCCN)C(=O)N[C@H](C(=O)N[C@@H](CCCN=C(N)N)C(=O)N[C@@H](CCCN=C(N)N)C(N)=O)C(C)C [RWQRNIRKVRR] |  |  |  |  |  |  | ≥ 159 µM
12 | CC[C@H](C)[C@H](NC(=O)[C@@H]1CCCN1C(=O)[C@H](CCCN=C(N)N)NC(=O)[C@@H]1CCCN1C(=O)[C@@H]1CCCN1C(=O)[C@@H](NC(=O)[C@@H]1CCCN1C(=O)[C@H](CCCN=C(N)N)NC(=O)[C@@H]1CCCN1C(=O)[C@H](CCCCN)NC(=O)[C@H](Cc1ccc(O)cc1)NC(=O)[C@H](CO)NC(=O)CNC(=O)[C@H](CCCCN)NC(=O)[C@H](CC(=O)O)NC(=O)[C@@H](N)C(C)C)[C@@H](C)O)C(=O)N[C@@H](Cc1ccc(O)cc1)C(=O)N[C@@H](CC(N)=O)C(=O)N[C@@H](CCCN=C(N)N)C(=O)N[C@@H](CC(N)=O)C(=O)O [VDKGSYKPRPTPPRPIYNRN] |  |  |  |  |  | 0.3 µM (≈ 0.707 µg/mL) | 
13 | CC[C@H](C)[C@H](NC(=O)[C@H](CCCN=C(N)N)NC(=O)[C@H](CCCN=C(N)N)NC(=O)[C@@H]1CCCN1C(=O)[C@@H]1CCCN1C(=O)[C@H](CCCN=C(N)N)NC(=O)[C@@H]1CCCN1C(=O)[C@H](CCCN=C(N)N)NC(=O)[C@@H]1CCCN1C(=O)[C@H](CC(C)C)NC(=O)[C@H](Cc1ccc(O)cc1)NC(=O)[C@@H]1CCCN1C(=O)[C@@H]1CCCN1C(=O)[C@H](CCCCN)NC(=O)[C@H](CC(=O)O)NC(=O)[C@@H](N)CC(C)C)C(=O)N[C@@H](Cc1ccc(O)cc1)C(=O)N[C@@H](CC(N)=O)C(=O)N[C@@H](CCCN=C(N)N)C(N)=O [LDKPPYLPRPRPPRRIYNR] |  |  |  |  |  | 2 µM (≈ 4.8 µg/mL) | 
14 | CC[C@H](C)[C@H](NC(=O)[C@H](CC(N)=O)NC(=O)[C@H](CCCN=C(N)N)NC(=O)[C@H](CCC(N)=O)NC(=O)[C@H](Cc1c[nH]c2ccccc12)NC(=O)[C@H](Cc1ccccc1)NC(=O)[C@@H](N)CS)C(=O)N[C@@H](CCCN=C(N)N)C(=O)N[C@@H](CCCCN)C(=O)N[C@H](C(=O)N[C@@H](CS)C(=O)N[C@@H](CCCN=C(N)N)C(N)=O)C(C)C [CFWQRNIRKVCR] |  |  |  |  |  |  | ≥ 155 µM
15 | CC[C@H](C)[C@H](NC(=O)[C@H](CCCN=C(N)N)NC(=O)[C@H](CCCN=C(N)N)NC(=O)[C@@H]1CCCN1C(=O)[C@@H]1CCCN1C(=O)[C@H](CCCN=C(N)N)NC(=O)[C@@H]1CCCN1C(=O)[C@H](CCCN=C(N)N)NC(=O)[C@@H]1CCCN1C(=O)[C@H](CC(C)C)NC(=O)[C@H](Cc1ccc(O)cc1)NC(=O)[C@@H]1CCCN1C(=O)[C@@H]1CCCN1C(=O)[C@H](CCCCN)NC(=O)[C@H](Cc1ccc(O)cc1)NC(=O)[C@@H](N)C(C)C)C(=O)N[C@@H](Cc1ccc(O)cc1)C(=O)N[C@@H](CC(N)=O)C(=O)N[C@@H](CCCN=C(N)N)C(N)=O [VYKPPYLPRPRPPRRIYNR] |  |  |  |  |  | 1.97 µM (≈ 4.8 µg/mL) | 
